Data set [1] deals with mice. Briefly: Hypnotic effect in mice (method of Janssen et al.). The format is in vivo. To be noted: for minimal effective dose / ED50: Mus musculus, iv; for minimal effective dose: 0.05 h, read-out: Hmin (minimal hypnotic dose inducing sleep in all animals for a period exceeding 3 minutes); for minimal effective dose / Mean duration of sleep: i.v.; for ED50: read-out: HD50 (dose inducing sleep in 50 percent of the animals). Here is the method:
(§1) The hypnotic activity is measured by the method of Janssen et al. (J. Med. Chem. 8, 220/1965/). Ketalar/2-(2-chlorophenyl)-2-methyl-amino-cyclohexanone/ and Hexobarbital (5-methyl-5-hexenyl-barbituric acid) were applied as reference compounds.

The test system of data set [2] is rats. Kind of data set: Hypnotic effect in rats (method of Janssen et al.). The format is in vivo. To be noted: for ED50: Rattus norvegicus, iv, read-out: HD50 (the source's name); for Mean duration of sleep: i.v., in the case of dose HD50. Here is the method: as §1
Data set [3] relates to rabbits. Kind of data set: Hypnotic effect in rabbits (method of Janssen et al.). The settings on record: for minimal effective dose: Oryctolagus cuniculus, iv, read-out: Hmin; for Mean duration of sleep: i.v., in the case of dose Hmin. Format: in vivo. Here is the method:
as §1

Data set [4] in a line: Postnarcotic period following awakening and adverse effects. Format: in vivo. The settings on record: postnarcotic period following awakening.
Data set [5] in a line: Acute toxicity (LD50) in mice. To be noted: mouse, in vivo, iv.
The test system of data set [6] is mice. Kind of data set: Acute toxicity (LD50) in mice. To be noted: mice, Tables 1 and 2.
A short description of data set [7]: Acute toxicity (LD50) in rats. To be noted: rat, in vivo, iv.
Data set [8] can be described thus: Acute toxicity (LD50, lethality) in rabbits. To be noted: rabbit, in vivo; for LD50: iv, LD50, rabbits.

The structures appear in SMILES notation. “Also recorded” adds a separate entry of the source. Some results are limits rather than exact numbers.

As usually defined, the LD50 is the dose at which mortality reaches 50%. Read a low LD50 as a more toxic substance. Take `Cc1cc2n(n1)C1(CCCCC1)N(C)N(C)C2=O` [Example 5, Spiro[cyclohexane-1,7'-/6,7-dihydro-2,5,6-trimethylpyrazolo[1,5-d][1,2,4]triazin-4(5H)-one/]]: the minimal effective dose in data set [1] and in data set [3] was 25 mg/kg throughout. Besides, the figures for the ED50 in data set [1] and in data set [2] were 17.5 mg/kg and 16 mg/kg, respectively. Further, in data set [1] (Tables 1 and 2, listed as compound of the invention), the “hypnotic effect compared with Hexobarbital and Ketalar” value was “superior to that of Hexobarbital; also recorded: in the same range as that of Ketalar”. Further, the “Mean duration of sleep” value turned out to be 2.8 min in data set [1] (in the case of dose HD50), 6.75 min in data set [1] (in the case of dose Hmin), 1.5 min in data set [2] and 6 min in data set [3]. Further, in data set [2] (Table 3), the “therapeutic index compared with reference substances” value is on record as “more advantageous in both instances”. In addition, in data set [4], the “adverse effects of the postnarcotic period” value is “devoid of any adverse effects”. For the same compound, the median lethal dose (LD50) in data set [5] was 192 mg/kg; in data set [7] it was 275 mg/kg; in data set [8], around 325 mg/kg. Moreover, the “toxicity compared with reference substances” value in data set [6] is given as “substantially lower than that of any of the above reference substances”.

In the case of `CN1C(=O)NC(=O)C(C)(C2=CCCCC2)C1=O` (stereo not drawn) [Hexobarbital, 5-methyl-5-hexenyl-barbituric acid], the minimal effective dose in data set [1] worked out at 45 mg/kg. Besides, the ED50 in data set [1] turned out to be 25 mg/kg; in data set [2], 17.5 mg/kg. Further, the “Mean duration of sleep” value in data set [1] (at a dose of 40 mg/kg) worked out at 2.6 min; in data set [1] (in the case of dose HD50), 4.1 min; in data set [1] (in the case of dose Hmin), 7.2 min; in data set [2], 4.45 min. The LD50 came out at 118 mg/kg in data set [5] and 125 mg/kg in data set [7].

The term mortality denotes the share of the test organisms that died. A low value points to more survivors. Regarding `CNC1(c2ccccc2Cl)CCCCC1=O` (stereo not drawn) [Ketalar, 2-(2-chlorophenyl)-2-methyl-amino-cyclohexanone], the minimal effective dose in data set [1] and in data set [3] was 25 mg/kg each time. Further, the ED50 in data set [1] is 14.5 mg/kg; in data set [2] it was 8 mg/kg. The “Mean duration of sleep” value was determined as 1.7 min in data set [1] (in the case of dose HD50), 5.0 min in data set [1] (in the case of dose Hmin), 1.9 min in data set [2] and 14 min in data set [3]. Moreover, the LD50 in data set [5] is 62 mg/kg; in data set [7] it was 39.4 mg/kg; in data set [8], below 50 mg/kg. The same compound yielded a mortality in data set [8] (50 mg/kg) of 80%.

The values above are taken from US4469692A, “Spiro derivatives of the pyrazolo [1,5-d] [1,2,4] triazine ring system and a process for the preparation thereof” (Alkaloida Vegyeszeti Gyar, priority 1981, dated 1984).
